# According to article PMC3842668, “Dual-acting stapled peptides target both HIV-1 entry and assembly” (Retrovirology, 2013):
# Where a SMILES comes first, the peptide text is derived from it. Bridges are numbered along the chain shown (N, C = ends). Where no end group is shown, it is not given here. [ ]: non-standard residue; d: D form. R8 = C=CCCCCCC[C@@](C)(N)C(=O)O; S5 = C=CCCC[C@](C)(N)C(=O)O
# Columns and labels:
# [1] = system: MT-2 cells
# [2] = not told; cited from earlier work
# Excerpt: In 2005, a 12-mer peptide (CAI), identified by phage-display, was reported to disrupt both immature- and mature-like particles in vitro by targeting the C-terminal domain (CTD) of HIV-1 CA [21]. […] Subsequently, we converted CAI to a cell-penetrating peptide (NYAD-1) by using a hydrocarbon stapling technique and confirmed its binding to the CTD [24]. NYAD-1, which is an i,i + 4 staple peptide, disrupts the formation of both immature- and mature-like particles in cell-free and cell-based assembly s ... || We previously reported that an i,i + 4 stapled peptide, NYAD-1, penetrates cells and disrupts virus assembly in both in vitro and cell-based assays. […] In addition, direct binding analyses by ITC and NMR confirmed that NYAD-1 binds to the CTD of CA. These findings motivated us to expand the scope of our drug discovery effort on hydrocarbon-stapled peptides as assembly and maturation inhibitors to an i,i + 7 series of stapled peptides. This approach allowed us to explore res ...
# [3] = target: T1, HIV-1 CA (Human immunodeficiency virus type 1 group M subtype B, UniProt P12493); assay: In vitro CA assembly, negative-stain electron microscopy; assay type: biochemical; conditions: 50 μΜ CA, 0.25- to 3.0-fold molar equivalent of peptide
# T1 construct: Wild-type HIV-1 CA was overexpressed and purified as previously described; made in house
# Description: Briefly, stock proteins were adjusted to the appropriate concentration (25 μΜ for Gag protein or 50 μΜ for CA protein) with the Na2HPO4 buffer at pH 8.0. […] Negative staining was used to check the assembly. Carbon-coated copper grids (200 mesh size; EM Sciences) were treated with 20 μl of poly-L-lysine (1 mg/ml; Sigma) for 2 min. 20 μl of reaction solution was placed onto the grid for 2 min. Spotted grids were then stained with 30 μl of uranyl acetate solution for 2 min. Excess stain was removed, and grids were air-dried. Specimens were examined with a TECNAI G^2 electron microscope (FEI, OR, USA).
# [4] = target: T1, HIV-1 CA; assay: Turbidity-based in vitro CA assembly assay; assay type: biochemical; conditions: turbidity at 350 nm
# Description: The ability of stapled peptides to disrupt CA-CA interactions was also assessed using a turbidity-based in vitro CA assembly assay. This assay is based on the observation that the turbidity of a CA-containing solution increases in proportion to the extent of assembly.
# Wild-type HIV-1 CA was overexpressed and purified as previously described. […] Turbidity assays were carried out in triplicate using a Beckman spectrophotometer at a wavelength of 350 nm to monitor HIV-1 in vitro assembly conducted at ambient temperatures. Protein samples were prepared in an assembly buffer [50 mM NaPO4 pH 8.0]. In vitro assembly reactions were prepared with 250 μl of assembly buffer containing 60 μM protein. To catalyze CA assembly 250 μl of an assembly buffer containing 5M NaCl was added. The solution was mixed by agitation and transferred a cuvette for a total delay of 20 seconds. Assembly was monitored every 10 sec for the first min and every min thereafter for a total 10 min. Assembly reactions with stapled peptides were incubated in the assembly buffer for 10 min and then centrifuged for 1 min to separate any insoluble fractions before catalyzing assembly.
# [5] = system: HIV-1 pNL4-3; assay: Virus assembly and release assay, Gag processing; assay type: cell-based; conditions: 293T cells transfected with pNL4-3, peptide for 16–20 h, ratio of Pr55Gag to p24
# Description: This inhibition was specific to HIV-1 as the release of another lentivirus, equine infectious anemia virus (EIAV), was not inhibited. In this study we investigated whether i,i + 7 stapled CAI-derived peptides have any effect on virus release. 293T cells were transfected with the full-length HIV-1 molecular clone pNL4-3, treated with stapled peptides for 16–20 h, and metabolically labeled with [^35S]Met/Cys. The cell- and virus-associated proteins were immunoprecipitated with HIV-Ig.
# Figure 6 i + 7 stapled peptides have no effect on HIV-1 release, but impair Gag processing. […] Cells were metabolically labeled with [^35S]Met/Cys for 2 h. Cells were lysed and virions were collected by ultracentrifugation. Cell and virus lysates were immunoprecipitated with HIV-Ig and subjected to SDS-PAGE. Protein band intensities were quantified by phosphorimager analysis, and HIV-1 release was calculated as the amount of virion-associated p24 relative to total (cell- plus virion-associated) Gag. (b) Accumulation of unprocessed Gag in cells was measured by calculating the ratio of Pr55^Gag to p24 in cells. P values were calculated by Student’s t-test, with P < 0.05 considered significant. N = 3, ± SD.
# 293T cells, plated at 3 × 10^5 cells/well in 12 well plates, were transfected with the HIV-1 molecular clone pNL4-3 [69]. […] One day posttransfection, cells were metabolically labeled with [^35S]Met/Cys for 2 h. The labeled virions were pelleted in an ultracentrifuge, and the virus and cell lysates were immunoprecipitated with pooled sera from HIV-1-infected patients (HIV-Ig, obtained from the ARP) and subjected to SDS-PAGE. Protein band intensities were quantified by phosphorimager analysis, and virus release was calculated as the amount of virion-associated Gag as a fraction of total (cell- plus virion-associated) Gag synthesized during the metabolic labeling period. Accumulation of Pr55^Gag in cells was measured by calculating the ratio of Pr55^Gag to p24 (CA).
# [6] = system: HIV-1 pNL4-3 (WT); assay type: cell-based
# [7] = system: WT HIV-1 (NL4-3); assay type: cell-based
# [8] = system: HIV-1 V120Q/A327P Env mutant; assay type: cell-based
# [9] = system: WT NL4-3; assay: Spreading virus replication in Jurkat T-cell line, RT activity, WT; assay type: cell-based, HIV-1
# [10] = system: WT NL4-3; assay: Virus replication in PBMC, WT; assay type: cell-based, HIV-1; conditions: PBMC from three donors, 30 μM peptide, RT activity
# [11] = system: V120Q/A327P mutant; assay: Virus replication in PBMC, Env mutant; assay type: cell-based, HIV-1; conditions: PBMC from three donors, 30 μM peptide, RT activity
# [12] = system: N-terminal and C-terminal V3 loop peptides; assay: ITC binding to N-terminal and C-terminal V3 loop peptides; parameters: species or system HIV-1; conditions: overlapping 15-mer V3 peptides
# Description: (§1) We also used ITC to measure the binding affinity of the stapled peptides to full-length cyclic V3 loop peptide.
# (§2) Full-length V3 peptide (Cat# 1840), cyclic V3 peptide (Cat# 1837) and 15-mer overlapping V3 peptides (Cat# 1832, 6282, 6283, 6284, 6285, 6287, 6288, 6289, 6290 and 6291, for amino acid sequence see HIV-1 Subtype B (MN) Env Peptides - Complete Set Cat# 6451) were obtained through the NIH ARP.
# (§3) For forward titration, 90 μM full-length V3 peptide, full-length cyclic V3 peptide or 90 μM 15-mer V3 peptides were titrated into 4.5 μM of stapled or linear peptides. Reference measurements were performed by titrating 90 μM full-length V3 peptide, full-length cyclic V3 peptide or 15-mer V3 peptide into buffer without peptide. For reverse titration, 90 μM stapled peptide was titrated into 4.5 μM full-length V3 peptide, full-length cyclic V3 peptide or […]. Reference measurements were performed by titrating 90 μM stapled peptide into buffer without peptide.
# [13] = target: tip of V3 loop (15-mer V3 tip peptide); assay: ITC binding to 15-mer V3 tip peptide; parameters: species or system HIV-1; conditions: 90 μM 15-mer V3 tip peptide titrated into 4.5 μM peptide, single-site model
# Description: as §1, §2, §3
# [14] = system: 293T cells
compound,measurement,setting,value
"ITFEDLLDYYGP-NH2 [CAI, reference compound]",CC 50 (μM ± SD) in MT-2,[1],>100 µM
same,cell permeability (in words),[2],lack of cell permeability
CC[C@H](C)[C@H](NC(C)=O)C(=O)N[C@@H](CO)C(=O)N[C@@H](Cc1ccccc1)C(=O)N[C@]1(C)CCCCCCC=CCCC[C@@](C)(C(=O)N[C@@H](CCC(=O)O)C(=O)N[C@@H](CO)C(=O)NCC(=O)N[C@@H](CO)C(N)=O)NC(=O)[C@H](Cc2ccc(O)cc2)NC(=O)[C@H](Cc2ccc(O)cc2)NC(=O)[C@H](CC(=O)O)NC(=O)[C@H](CC(C)C)NC(=O)[C@H](CC(C)C)NC(=O)[C@H](CCC(=O)O)NC1=O [NYAD-36] (Ac-ISF[R8]ELLDYY[S5]ESGS-NH2; staple 4-11),"Effect on CA tube assembly, EM (in words)",[3],either severely damaged or disintegrated
same,"Effect on CA assembly, turbidity (in words)",[4]; 50 mM NaPO4 pH 8.0,reduced the extent of CA assembly in a dose-dependent manner
same,initial rate of CA assembly,"[4]; compound:CA ratio 2:1, mean ± standard deviation from three experiments, DMSO control 216 ± 6.23",158 ± 24.71 mOD/min
same,Accumulation of cell-associated Pr55Gag (in words),[5],modest accumulation of cell-associated Pr55^Gag
same,reduction in infectivity of virions produced from treated cells,[6],four-fold
same,"fold reduction of virus infectivity, WT",[7],> 10 fold
same,"fold reduction of virus infectivity, V120Q/A327P double mutant",[8],~ 2.5 fold
same,virus replication (in words),"[9]; Jurkat cells transfected with pNL4-3 (WT), 37.5 μM peptide",significantly delayed
same,virus replication (in words),"[9]; Jurkat cells transfected with pNL4-3, 25 μM peptide",virus replication peaked approximately six days posttransfection
same,virus replication (in words),"[9]; Jurkat cells transfected with pNL4-3, 50 μM peptide",no replication was detected
same,virus replication (in words),[10],strongly inhibited replication of WT NL4-3 in PBMC
same,virus replication (in words),[11],showed some antiviral activity against the V120Q/A327P mutant
same,binding to N-terminal and C-terminal V3 loop peptides (in words),[12],neither N-terminal nor C-terminal V3 loop peptides bind
same,Kd,[13],15.1 ± 3.78 µM
same,CC 50 (μM ± SD) in MT-2,[1],>189.4 µM
same,Cell penetration (in words),[14],penetrate cells less efficiently than NYAD-1
